# Test results from patent US7285555B2, “6-aryl-7-halo-imidazo[1,2-a]pyrimidines as anticancer agents” (Wyeth Holdings Corporation, priority 2003, dated 2007).
# What was measured:
# MAP-rich tubulin = test: Tubulin polymerization test procedure with MAP-rich tubulin; type: biochemical, bovine; settings: MAP-rich tubulin with 1 mM GTP, compound 0.3 μM, at 20 min
# Description: (§1) Medium is RPMI-1640 with L-glutamine, supplemented with 10% heat-inactivated fetal calf serum, 100 units/mL penicillin, and 100 μg/mL streptomycin (Gibco, Grand Island, N.Y.). Microtubule-associated protein (MAP)-rich tubulin, containing about 70% tubulin and 30% MAPs (#ML113), and highly purified tubulin (>99% pure, #TL238), both from bovine brain, are obtained from Cytoskeleton, Inc., Denver, Colo. PEM buffer (80 mM piperazine-N,N′-bis[2-ethanesulfonic acid], pH 6.9, 1 mM ethylene glycol-bis(β-aminoethyl ether)-N,N,N′,N′-tetraacetic acid, 1 mM magnesium chloride) and guanosine 5′-triphosphate (GTP) are also obtained from Cytoskeleton. [^3H]paclitaxel, specific activity 14.7 Ci/mmol, is purchased from Moravek Biochemicals (Brea, Calif.). [^3H]vinblastine, specific activity 9.60 Ci/mmol and MicroSpin G-50 columns are obtained from Amersham Biosciences (Piscataway, N.J.). […] Other reagents are obtained from Sigma (St. Louis, Mo.).
# MAP-rich tubulin is dissolved in ice-cold PEM buffer containing 1 mM GTP (GPEM buffer) at a concentration of 1.3 mg/mL. The solution is centrifuged at top speed in an Eppendorf model 5415C microcentrifuge (Brinkmann Instruments, Westbury, N.Y.) for 10 min at 40 immediately before use. The tubulin solution is added to wells of a ½-area 96-well plate (Costar No. 3696, Corning, Inc., Corning, N.Y.) already containing the compounds of interest. Each compound is tested in duplicate at a final concentration of 0.3 μM in a volume of 110 μL per well. The final DMSO concentration in all wells is 0.3%. Control reactions, which receive compound solvent only, are done in quadruplicate. The plate is put in a SpectraMax Plus plate reader (Molecular Devices Corp. Sunnyvale, Calif.) thermostated at 240 and the absorbance of each well at 340 nm, a measure of the appearance of turbidity due to tubulin polymer formation, is determined every minute for 60 minutes. The absorbance at time 0 for each well is subtracted from each of the subsequent absorbance readings for that well, and then the duplicates are averaged.
# In this assay, control reactions with MAP-rich tubulin show an S-shaped absorbance profile characterized by three phases: first, a lag phase during which no change in absorbance occurs; second, a polymerization phase in which absorbance increases; and third, a plateau phase in which absorbance has reached a maximum and little or no further change occurs. Polymerization enhancers such as paclitaxel and docetaxel shorten or eliminate the lag phase, increase the rate of the polymerization phase, and often increase the height of the plateau. […] This has been expressed quantitatively in Table 6 by dividing the mean A340 of each sample at 20 min by the mean A340 of the control at 20 min to give a fold enhancement over control. […]
# pure tubulin = test: Tubulin polymerization test procedure with pure tubulin; type: biochemical, bovine; settings: for polymerization of pure tubulin without GTP (in words): pure tubulin without added GTP
# Description: as §1
# The procedure with pure tubulin is similar except for the following changes. […] The supernatant after centrifugation is dispensed to a ½-area 96-well plate already containing compounds. Each compound is tested in duplicate at a final concentration of 24.3 μM. The plate reader μs thermostated at 35°.
# [1] = system: highly purified tubulin (tubulin heterodimer); test: Competitive binding test procedure, [3H]vinblastine; design: species or system bovine; settings: competitor 100 μM, [3H]vinblastine 100 nM
# Description: as §1
# (§2) The binding of examples of this invention to highly purified tubulin is studied by competitive inhibition methods. […] To study possible competition at the taxane site, on the other hand, polymerized tubulin (microtubules) is used because paclitaxel binds preferentially to microtubules.
# (§3) Highly purified tubulin is dissolved in PEM buffer without GTP and used at a final concentration of 1.0 to 1.3 mg/ml (10 to 13 μM). […] These solutions are incubated at 240 for 1 hr and then applied to MicroSpin G-50 columns which are centrifuged for 2 min at 3000 rpm in an Eppendorf 5415C microfuge. An aliquot of each column effluent (containing tubulin and bound radioligand) is mixed with scintillation fluid and counted in a liquid scintillation spectrometer. […] Quadruplicates are averaged, and the ability of the competitor to inhibit the binding of the radioligand is expressed as a percentage of control binding in the absence of any competitor.
# [2] = system: highly purified tubulin (tubulin heterodimer); test: Competitive binding test procedure, [3H]colchicine; design: species or system bovine; settings: competitor 100 μM, [3H]colchicine 50 nM
# Description: as §1, §2, §3
# [3] = system: polymerized tubulin (microtubules); test: Competitive binding test procedure, [3H]paclitaxel; design: species or system bovine; settings: [3H]paclitaxel 2.1 μM
# Description: as §1, §2
# For competition with [^3H]paclitaxel, highly purified tubulin is dissolved in PEM buffer containing 0.75 M glutamate and 25 μM dideoxy-GTP; final protein concentration is 0.25 to 0.35 mg/mL (2.5 to 3.5 μM). These conditions foster the rapid formation of short, stable microtubule polymers (Hamel, E., del Campo, A. A., and Lin, C. M. Stability of tubulin polymers formed with dideoxyguanosine nucleotides in the presence and absence of microtubule-associated proteins. J. Biol. Chem., 259: 2501-2508, 1984). […] The reactions are then centrifuged at top speed in an Eppendorf 5415C microfuge for 20 min at room temperature in order to pellet the microtubule protein. Triplicate aliquots of each supernatant are mixed with scintillation fluid and counted in a liquid scintillation spectrometer. From the amount of radioactivity in the supernatants and the measured total starting radioactivity, the amount of [^3H]paclitaxel bound to pelleted microtubule protein is calculated. The ability of each competitor to inhibit radioligand binding to pelleted protein is expressed as a percent of controls without any competitor.
Compound,A340 Compound / A340 Control (fold enhancement over control) (MAP-rich tubulin),polymerization of pure tubulin without GTP (in words) (pure tubulin),"A340 at 0 min (pure tubulin; pure tubulin, no added GTP, compound 24.3 μM, 0 min)","A340 at 5 min (pure tubulin; pure tubulin, no added GTP, compound 24.3 μM, 5 min)","A340 at 10 min (pure tubulin; pure tubulin, no added GTP, compound 24.3 μM, 10 min)","A340 at 15 min (pure tubulin; pure tubulin, no added GTP, compound 24.3 μM, 15 min)","A340 at 20 min (pure tubulin; pure tubulin, no added GTP, compound 24.3 μM, 20 min)","[3H]Vinblastine binding, Mean, percent of binding to control without competitor [1] [%]","[3H]Colchicine binding, Mean, percent of binding to control without competitor [2] [%]","[3H]Colchicine binding, Mean, percent of binding to control without competitor ([2]; listed as example 6)","[3H]Paclitaxel binding, Mean, percent of binding to control without competitor ([3]; competitor 20 μM) [%]","[3H]Paclitaxel binding, Mean, percent of binding to control without competitor ([3]; competitor 20 μM, listed as example 6)","[3H]Paclitaxel binding, Mean, percent of binding to control without competitor ([3]; competitor unlabeled paclitaxel 5 μM) [%]"
"CN(C)CCCOc1cc(F)c(-c2c(Cl)nc3nccn3c2C2CCCCCC2)c(F)c1 [Example 6, 3-[4-(7-Chloro-5-cycloheptylimidazo[1,2-a]pyrimidin-6-yl)-3,5-difluorophenoxy]-N,N-dimethylpropan-1-amine]",1.7,induces polymerization,0,0.15,0.19,0.19,0.19,17,84,does not inhibit,92,does not inhibit,
"CC(=O)O[C@H]1C(=O)[C@@]2(C)[C@H]([C@H](OC(=O)c3ccccc3)[C@]3(O)C[C@H](OC(=O)[C@H](O)[C@@H](NC(=O)c4ccccc4)c4ccccc4)C(C)=C1C3(C)C)[C@]1(OC(C)=O)CO[C@@H]1C[C@@H]2O [Paclitaxel, reference compound]",1.8,able to induce polymerization,,,,,,92,93,,,,35
